Target: full-length recombinant human FYN A (Homo sapiens (Human), UniProt P06241)
Experiment: ADP-Glo Kinase Assay, FYN kinase inhibition (primary and secondary screen)
Assay type: biochemical
Conditions: primary screen, initial compounds
Source text: The chemical library was comprised of the SoftFocus ATP-competitive hinge binding compounds described by Harris, C. J., Hill, R. D., Sheppard, D. W., et al., The Design and Application of Target-Focused Compound Libraries. Combinatorial Chemistry and High Throughput Screening 14:521-31 (2011). The specific pharmacore chemistries included SFK52 comprising 6-[R2]-3-[R1]imidazo[1,2-b] pyridazine compounds, SFK33 comprising N-(3-[R2] imidazo [1,2-b] pyridazin-6-yl) [R1] amine compounds, SFK49 comprising N-(5-[R2] imidazo [2,1-b][1,3,4] thiadiazol-2-yl)[R1]-amine compounds, SFK 40 comprising 5-[R2]-3-[R1] pyridin-2-amine compounds, SFK43 comprising 6-[R2]-3-[R1]imidazo[1,2-a] pyrazine compounds, and SFK63. The chemical structures of the initial 600 potential kinase inhibitors are presented in Table 3, with those chosen for additional analysis presented in Table 4. Comparison of the compounds presented in Table 1 and those of Tables 2, 3 and 4, illustrate the novelty of the chemical structures claimed herein.
FYN kinase (10 micrograms) was from the FYN A Kinase Enzyme System (V3571, Promega UK Ltd.), a full-length recombinant human FYN A containing an N-terminal GST tag of about 85 kDa, expressed by bacullovirus in […] insect cells, supplied at a concentration of 0.1 microgram/microliter in 5× reaction buffer. The FYN substrate, a 12 amino acid peptide of the sequence […], containing a single tyrosine phosphorylation site, was custom synthesized (Peptide Synthetics, Peptide Protein Research, Fareham, UK) and supplied as a 4 mg/ml aqueous solution. All other reagents were obtained from Sigma (Sigma-Aldrich, Gillingham, Dorset, UK), with the exception of UltraPure ATP (V9102, Promega UK Ltd.) and the ATP-competitive broad spectrum protein kinase inhibitor staurosporine (569397, Merck Millipore, Watford, Hertfordshire, UK), or as otherwise indicated.
The assay procedure determines the IC50 of each potential FYN kinase inhibitor by measuring the enzyme catalyzed ATP-dependent phosphorylation of the FYN substrate peptide. The ADP-Glo™ Kinase Assay is specifically designed to quantify kinase activity by measuring the ADP produced in the reaction The reaction buffer comprises 40 mM Tris·HCl (pH 7.5), 20 mM MgCl2, 0.1 mg/ml BSA and 5 microM DTT. Individual compounds within the chemical library were dissolved in DMSO at known concentrations. Briefly, 2.5 microliters of reaction buffer containing 3 picograms of FYN kinase and serial dilutions of each potential FYN kinase inhibitor (9 3-fold dilutions of a 10 micromolar top sample) are placed into each well of a 384 well microtiter plate and incubated at room temperature for 30 minutes. An additional 2.5 microliters of reaction buffer containing 100 picograms of the FYN substrate and 12.5 picomoles of ATP are then added to each well and the reaction carried out for 90 minutes at room temperature. The reactions are terminated by addition of 5 microliters of the ADP-Glo™ Reagent component of the ADP-Glo™ Kinase Assay kit to each well. The ADP-Glo™ Reagent comprises an ATP-dependent adenylate cyclase, an inorganic pyrophosphatase and an excess of staurosporine. The adenylate cyclase converts the remaining ATP to cAMP and pyrophospahte, the pyrophosphatase converts the pyrophosphate to phosphate and the staurosporine inhibits the activity of the FYN kinase, the net effect is to remove all residual ATP while preserving the ADP produced by FYN kinase. The terminated reactions are incubated for 40 minutes at room temperature, prior to addition of the Kinase Detection Reagent component of the ADP-Glo™ Kinase Assay kit to each well. The Kinase Detection Reagent comprises pyruvate kinase, phosphoenol pyruvate (PEP), luciferin and luciferase. The pyruvate kinase converts PEP to pyruvate and in the process generates ATP from the residual ADP present in the terminated reaction. […]

Chain of full-length recombinant human FYN A (P06241 whole entry): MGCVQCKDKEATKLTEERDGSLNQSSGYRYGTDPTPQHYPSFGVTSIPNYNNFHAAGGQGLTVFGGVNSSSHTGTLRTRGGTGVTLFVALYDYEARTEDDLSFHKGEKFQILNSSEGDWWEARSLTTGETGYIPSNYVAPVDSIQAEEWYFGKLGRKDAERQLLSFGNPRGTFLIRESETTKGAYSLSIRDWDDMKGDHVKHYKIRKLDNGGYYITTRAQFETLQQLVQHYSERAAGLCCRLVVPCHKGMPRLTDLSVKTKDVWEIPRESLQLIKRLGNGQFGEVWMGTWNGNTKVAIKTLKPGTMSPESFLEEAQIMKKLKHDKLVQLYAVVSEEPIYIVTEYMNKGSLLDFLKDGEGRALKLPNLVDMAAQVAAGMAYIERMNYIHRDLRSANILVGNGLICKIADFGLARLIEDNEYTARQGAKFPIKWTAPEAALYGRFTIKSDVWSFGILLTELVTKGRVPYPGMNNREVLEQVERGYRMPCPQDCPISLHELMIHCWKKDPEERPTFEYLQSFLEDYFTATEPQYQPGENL

| SMILES | IC50 |
| --- | --- |
| CC(=O)Nc1cccc(-c2cncc(NCc3ccco3)n2)c1 [035_0144_0081, N-[3-[6-(2-furylmethyl-amino)pyrazin-2-yl]phenyl] acetamide] | 11200 nM |
| Oc1cccc(-c2cncc(NCc3ccoc3)c2)c1 [081_0284_2069, 3-[5-(3-furylmethyl-amino)-3-pyridyl]phenol] | 10900 nM |
| OCc1ccc(-c2cnc3ccc(NCc4ccco4)nn23)cc1 [229_0144_0285, [4-[6-(2-furylmethyl-amino)imidazo[1,2-b]pyridazin-3-yl]phenyl] methanol] | 2200 nM |
| OCc1cccc(-c2cnc3ccc(NCc4ccco4)nn23)c1 [229_0144_0291, [3-[6-(2-furylmethyl-amino)imidazo[1,2-b]pyridazin-3-yl]phenyl] methanol] | 3860 nM |
| CC(=O)c1cccc(-c2cnc3ccc(NCc4ccco4)nn23)c1 [229_0144_4145, 1-[3-[6-(2-furylmethyl-amino)imidazo[1,2-b]pyridazin-3-yl]phenyl] ethanone] | 997 nM |
| NC(=O)c1cccc(-c2cnc3sc(NCC4CC4)nn23)c1 [699_4051_0347, 3-[2-(cyclopropyl-methyl-amino)imidazo [2,1-b][1,3,4]thia-diazol-5-yl]benzamide] | 1940 nM |
| Cc1ccccc1CNc1nn2c(-c3cccc(C(=O)N(C)C)c3)cnc2s1 [699_8074_0349, N,N-dimethyl-3-[2-(o-tolylmethyl-amino)imidazo[2,1-b][1,3,4]thia-diazol-5-yl]benzamide] | 3730 nM |
| O=CNc1cc(-c2ccc(C(=O)N3CCOCC3)cc2)cn2c(-c3ccc(F)cc3)cnc12 [788_0339_0337, N-[3-(4-fluorophenyl)-6-[4-(morpholine-4-carbonyl)phenyl]imidazo[1,2-a]pyridin-8-yl]formamide] | 3590 nM |
| COc1ccc(-c2cnc3ccc(Cc4ccccc4)nn23)cc1OC [828_0079_6001, 6-benzyl-3-(3,4-dimethoxyphen-yl)imidazo[1,2-b]pyridazine] | 974 nM |
| NC(=O)c1ccc(-c2cnc3ccc(Cc4ccc(F)cc4)nn23)cc1 [828_0346_6370, 4-[6-[(4-fluorophenyl)methyl]imidazo [1,2-b]pyridazin-3-yl]benzamide] | 1300 nM |
| c1csc(-c2cnc3ccc(-c4ccncc4)nn23)c1 [828_4147_0069, 6-(4-pyridyl)-3-(2-thienyl)imidazo [1,2-b]pyridazine] | 497 nM |

Same assay, conditions: secondary screen, candidate compounds re-synthesized and expanded

| SMILES | IC50 |
| --- | --- |
| COc1cc(-c2cnc3ccc(NCc4cccs4)nn23)ccc1O [BF000145954, 2-methoxy-4-[6-(2-thienylmeth-ylamino)imi-dazo[1,2-b]pyridazin-3-yl]phenol] | 166 nM |
| CN(C)C(=O)c1cccc(-c2cnc3sc(NCC4CC4)nn23)c1 [BF000714798, 3-[2-(cyclopropyl-methylamino)imidazo[2,1-b][1,3,4]thia-diazol-5-yl]-N,N-dimethyl-benzamide] | 884 nM |
| CN(C)C(=O)c1cccc(-c2cnc3sc(NCc4ccc5c(c4)OCO5)nn23)c1 [BF000717214, 3-[2-(1,3-benzodioxol-5-ylmethyl-amino)imi-dazo[2,1-b][1,3,4]thia-diazol-5-yl]-N,N-dimethyl-benzamide] | 1930 nM |
| COc1cc(-c2cnc3ccc(NCc4ccccn4)nn23)ccc1O [BF000817095, 2-methoxy-4-[6-(2-pyridylmeth-ylamino)imi-dazo[1,2-b]pyridazin-3-yl]phenol] | 233 nM |

Target: Fyn (Mus musculus (Mouse), UniProt P39688)
Experiment: not given
Conditions: Fyn knockout strains; cited from earlier work

Chain of Fyn (P39688 whole entry): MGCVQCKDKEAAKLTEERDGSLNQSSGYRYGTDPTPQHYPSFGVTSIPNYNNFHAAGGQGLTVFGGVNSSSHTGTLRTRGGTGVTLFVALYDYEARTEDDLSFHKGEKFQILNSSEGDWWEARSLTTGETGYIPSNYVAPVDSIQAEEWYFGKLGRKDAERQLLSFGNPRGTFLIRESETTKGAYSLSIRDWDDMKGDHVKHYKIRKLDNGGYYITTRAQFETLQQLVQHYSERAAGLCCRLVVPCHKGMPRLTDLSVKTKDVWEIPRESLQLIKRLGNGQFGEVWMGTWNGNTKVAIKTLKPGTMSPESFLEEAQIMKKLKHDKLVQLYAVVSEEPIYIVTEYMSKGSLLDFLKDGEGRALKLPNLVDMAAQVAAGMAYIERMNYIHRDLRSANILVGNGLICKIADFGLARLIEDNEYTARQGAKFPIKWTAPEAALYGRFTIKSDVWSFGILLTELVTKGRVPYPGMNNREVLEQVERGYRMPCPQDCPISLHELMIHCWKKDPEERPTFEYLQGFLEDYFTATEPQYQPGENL

| SMILES | energy utilization | lipid utilization |
| --- | --- | --- |
| CN(C)S(=O)(=O)c1ccc2c(c1)/C(=C/c1cc3c([nH]1)CCCC3)C(=O)N2 [SU6656] | no increase | no increase |

Same assay, conditions: treated mice relative to untreated control mice; cited from earlier work

| SMILES | fat mass |
| --- | --- |
| CN(C)S(=O)(=O)c1ccc2c(c1)/C(=C/c1cc3c([nH]1)CCCC3)C(=O)N2 [SU6656] | significantly reduced |

Reference: patent publication US11701353B2, “Methods, compositions, and uses of novel FYN kinase inhibitors” (Pathways Neuro Pharma, Inc., priority 2015, dated 2023)
